# Entries after “also recorded” stand apart in the source; their conditions may differ.
# What was measured:
# AMPK [1] = test: AMPK activity assay at cell level (western blot of p-AMPKα and p-ACC in MEFs); type: cell-based, mouse; conditions: MEF cells, compound 10 nM, 2 h; multiple of the ratio relative to positive control AICAR (3 mM); band brightness by Image J
# Procedure: The ability of compounds to activate AMPK in mouse embryonic fibroblasts (MEFs) was determined, which could be specifically carried out by detecting the phosphorylation level (p-AMPKα) of threonine at the 172nd position of AMPK and the phosphorylation level (p-ACC) of serine at the 79th position of the susbtrate ACC1/ACC2 of AMPK (FIG. 1 and Table I) by western blot.
# The specific method was as follows: • (1) MEFs with loxP insertion sequences or of wild-type were plated in a 6-well plate and cultured in DMEM containing 10% serum. If a gene needed to be knocked out at this time, when the density of the corresponding MEFs with loxP insertion sequences reached about 30%, an adenovirus capable of expressing cre should be added to the culture well followed by further culture for more than 24 h; • (2) When the cell density was close to 90%, the cells were provided with fresh DMEM, at the same time, a compound (final concentration 10 nM) was added to the cells, followed by culture for 2 h, with an equal volume of DMSO as the negative control, and the cells treated with the addition of AICAR (3 mM) as the positive control; • (3) After sucking up the culture solution, the cells were lysed with 200 μL of a cell lysate (its formulation was given below), then the cells were scraped from the culture dish, ultrasonicated, and subjected to low temperature centrifugation at 20000 g for 10 min; • (4) The supernatant and an equal volume of 2*SDS solution (its formulation was given below) were mixed, and subjected to SDS-PAGE in a concentration of 8%, then the protein was transferred to PVDF membrane; each PVDF membrane was blocked with 25 mL of skim milk for 1 h, and then rinsed with TBST buffer (its formulation was given below) 3 times for 10 min each time; • (5) AMPKα subunit primary antibody (Cell Signaling Technology, #2532), primary antibody of phosphothreonine at the 172nd position of AMPK (Cell Signaling Technology, #2535), ACC primary antibody (Cell Signaling Technology, #3662), or primary antibody of phosphoserine at the 79th position of ACC (Cell Signaling Technology, #3661) was diluted in a ratio of 1:1000 with a primary antibody dilution (its formulation was given below), reacted with the PVDF membrane at room temperature for 12 h, and then rinsed 3 times with TBST buffer; • (6) A 1:1000 dilution of HRP-conjugated goat anti-rabbit secondary antibody (Jackson ImmunoResearch, 111-035-003) was added, reacted at room temperature for 1 h, and then rinsed 3 times with TBST buffer; • (7) The PVDF membrane was dried, reacted in an ECL mixture (WesternBright ECL HRP substrate, Advansta) and subjected to exposure with medical X-ray, developed, finally rinsed, dried, and then scanned to obtain data related to AMPK activation.
# The formulations of reagents used were: • Cell lysate: 20 mM Tris-base, pH 7.5, 150 mM NaCl, 1 mM EDTA, 1 mM EGTA, 2.5 mM Sodium pyrophosphate, 1 mM β-glycerolphosphate, 1% Triton X-100 (v/v); • 2*SDS solution: 20% Glycerol (v/v), 4% SDS (m/v), 10% β-mecaptoethanol (v/v), 0.01% Bromophenol blue (m/v); • TBST buffer: 4.84% Tris-base (m/v), 8% NaCl (m/v), 0.1% Tween-20 (v/v); • Primary antibody dilution: TBST buffer containing 5% BSA (v/v).
# AMPK [2] = test: AMPK activation in liver of treated high-fat-fed mice by western blot; type: in vivo, mouse; conditions: 90 days after s.c. administration
# Text: […]
# high-fat-fed obese mice = test: In vivo efficacy in high-fat-fed obese mice (body weight, liver slice); parameters: species or system mouse; conditions: 90 days
# Text: […]
smiles,measurement,setting,value
Cc1n(CCCCCCCCCCCC(F)(F)C(F)(F)C(F)(F)C(F)(F)C(F)(F)F)cc[n+]1Cc1c(Cl)cccc1Cl.[Cl-] [IB-33],"Degree of AMPK activation, p-ACC/ACC",AMPK [1],0.94
same,"Degree of AMPK activation, p-AMPKα/AMPK",AMPK [1],0.54
same,"AMPK activation in the mice (p-AMPK Thr172, p-ACC Ser79 by western blot)",AMPK [2],effectively activate AMPK
same,body weight,"high-fat-fed obese mice; s.c. 0.05, 0.15, 0.3 mg/kg once every two days",significantly reduce the body weight; also recorded: effective in reducing body weight
same,fat accumulation in the liver,"high-fat-fed obese mice; s.c., HE stained liver slice",improve the fat accumulation level in the liver; also recorded: effective in reducing fat accumulation in the liver
